Measured values reported in PubChem BioAssay AID179 (DTP/NCI, 2004).
“And” between values parts separate entries of the source, which are not always exact repeats. Identical values can stand only once. The source made the active and inactive calls.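 The calls were made as follows: active = compounds giving half or more protection of infected cells from virus-caused growth loss, again on retest; inactive = the rest.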

Tested on: CEM cells HIV-1 protection, formazan growth assay
Test: NCI AIDS Antiviral Assay
Settings: for IC50: measured here: growth of uninfected CEM cells
In short: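 Steps: treat uninfected and HIV-1-infected human CEM cells at five drug levels; quantify growth by soluble formazan; retest any compound reaching 50% protection; classify actives from the retest.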

SMILES: CC(C(=O)NCNC(=O)c1ccccc1)C(=O)Nc1ccccc1 (stereo not drawn)
- outcome: inactive

SMILES: O=c1ssc2ccccc12
- EC50: > 200 µM
- IC50: 120 µM

SMILES: CC(C)(/C=N/O)/[N+]([O-])=C/c1ccccc1
- EC50: > 200 µM
- IC50: > 200 µM

SMILES: Cc1cc(S(=O)(=O)Nc2nnc3cnc4ccccc4n23)c(S)cc1Cl
- EC50: 89.1 µM
- IC50: 339 µM

SMILES: CC1=NN(C(=O)c2ccncc2)C(=O)C1
- EC50: > 200 µM
- IC50: > 200 µM

SMILES: O=c1cn[nH]c2ccccc12
- EC50: > 741 µM
- IC50: > 741 µM

SMILES: CCc1cccc(C(C)(C)C)c1NC(=S)N/C=C(\C#N)C(=O)c1ccc2ccccc2c1
- EC50: > 200 µM
- IC50: 93.3 µM

SMILES: CNC(=O)CNC(=O)N(C[C@@H]1CCCN1C(=O)[C@H](CC(C)C)NC(=O)OC(C)(C)C)C(C)C
- EC50: > 200 µM
- IC50: > 200 µM

SMILES: N#CC(C#N)=Cc1ccccc1O
- EC50: > 200 µM
- IC50: 40.7 µM

SMILES: O=C(Nc1cccc(O)c1)C(=O)C1C(=O)NC(=S)NC1=O
- EC50: > 813 µM
- IC50: > 813 µM

SMILES: CCOC(=O)c1nc2ccc(C(F)(F)F)cc2nc1Oc1cc(OC)cc(OC)c1
- EC50: > 200 µM
- IC50: > 200 µM

SMILES: CCN1CCC(C)OP1(=O)Cc1ccccc1 (stereo not drawn)
- EC50: > 200 µM
- IC50: > 200 µM

SMILES: O=c1c2ccc(Br)cc2nc(-c2ccccc2)n1NC1OC(CO)C(O)C(O)C1O (stereo not drawn)
- outcome: inactive

SMILES: O=C1/C(=C/c2cccc([N+](=O)[O-])c2)COc2ccc(Br)cc21
- EC50: > 10.5 µM
- IC50: > 10.5 µM

SMILES: O=C(Nc1ccccc1C(=O)Nc1nccs1)c1ccccc1
- EC50: > 200 µM
- IC50: 32.4 µM

SMILES: c1cnc(NC(Nc2cnccn2)C2CCCCC2)cn1
- EC50: > 240 µM
- IC50: > 240 µM

SMILES: CNC(=O)N(C)COC
- EC50: > 759 µM
- IC50: 115 µM

SMILES: CCCCC1Sc2cc(OC)cc([N+](=O)[O-])c2NC1=O (stereo not drawn)
- EC50: > 200 µM
- IC50: 61.7 µM

SMILES: COc1ccc(-n2cccc2)cc1
- EC50: > 200 µM
- IC50: > 200 µM

SMILES: CC(C)C(Sc1nc(-c2ccccc2)c(-c2ccccc2)[nH]1)C(=O)N/N=C/c1ccc(Cl)cc1 (stereo not drawn)
- EC50: > 74.1 µM
- IC50: > 74.1 µM

SMILES: CSc1c(C#N)c(O)n(-c2ccc(Cl)cc2)c(=O)c1C#N
- EC50: > 200 µM
- IC50: 33.1 µM

SMILES: N[C@H](C(=O)O)[C@@H]1CC(Cl)=NO1
- EC50: > 15.1 µM
- IC50: > 15.1 µM

SMILES: CC(NC(=O)C(N)Cc1ccc(O)cn1)C(=O)O (stereo not drawn)
- EC50: > 200 µM
- IC50: > 200 µM

SMILES: Cc1ccc(/C=C2\CCOC2=O)cc1
- EC50: > 138 µM
- IC50: > 138 µM

SMILES: CCCCCCCCCCCCC(F)C(=O)OCC1OC(n2cc(C)c(=O)[nH]c2=O)CC1N=[N+]=[N-] (stereo not drawn)
- EC50: 0.0123 µM
- IC50: 102 µM

SMILES: Nc1ccc(C2CCC(C(=O)O)N2)cc1 (stereo not drawn)
- EC50: > 200 µM
- IC50: > 200 µM

SMILES: CC(C)=CC(=O)N1CCN(C(=O)C=C(C)C)CC1
- EC50: > 501 µM
- IC50: > 501 µM

SMILES: O=C1NC(=O)N2CC(CI)OC2C1c1ccccc1 (stereo not drawn)
- EC50: > 97.7 µM
- IC50: > 97.7 µM

SMILES: COc1cc(O)c2c(c1)O[C@@H]1OCC[C@H]21
- EC50: > 1200 µM
- IC50: 871 µM

SMILES: Cc1cc(N=Nc2ccc(-c3ccc(N=Nc4ccc(O)c(C(=O)O)c4)cc3)cc2)c(C)cc1N
- EC50: > 100 µM
- IC50: 41.7 µM

SMILES: O=C(Nc1cccc(C(F)(F)F)c1)C(=O)C(C(=O)c1ccc2ccccc2c1)C1OC(=O)c2ccccc21 (stereo not drawn)
- EC50: > 50.1 µM
- IC50: 21.9 µM

SMILES: CN1NC(c2ccccc2)=C(C#N)C(=O)CC1c1ccccc1 (stereo not drawn)
- EC50: > 200 µM
- IC50: 93.3 µM

SMILES: Cc1nc(C)c(N2CCN(C(=O)NC(CCC(=O)O)C(=O)O)CC2)c(=O)[nH]1 (stereo not drawn)
- EC50: > 200 µM
- IC50: > 200 µM

SMILES: O=c1c2ccccc2sc2ccccc12
- EC50: > 200 µM
- IC50: > 200 µM

SMILES: CC1CCCCN1CC(=O)c1ccc2c(c1)Sc1ccccc1O2 (stereo not drawn)
- EC50: > 200 µM
- IC50: 8.13 µM

SMILES: CC(=O)Oc1ccc(OC(Oc2ccccc2)c2ccccc2)cc1 (stereo not drawn)
- EC50: > 89.1 µM
- IC50: 60.3 µM

SMILES: CCOc1ccc(NC(=O)/C(=C\c2ccc(C)cc2)C(C)=O)cc1
- outcome: inactive

SMILES: CCCCN1C(=O)c2cc(=O)[nH]c(O)c2C1C (stereo not drawn)
- EC50: > 1050 µM
- IC50: 676 µM

SMILES: O=C1NC2(CN3CCC2CC3)C(=O)N1CN(Cc1ccccc1)c1ccccc1 (stereo not drawn)
- EC50: > 200 µM
- IC50: 91.2 µM

SMILES: COC(=O)CCC1=NCC(C)(C)O1
- EC50: > 200 µM
- IC50: > 200 µM

SMILES: O=C1NC2c3ccccc3CCC12 (stereo not drawn)
- EC50: > 1450 µM
- IC50: > 1450 µM

SMILES: CN1CCN(/C(N)=C(\C#N)C(=O)Nc2ccccc2)CC1
- EC50: > 200 µM
- IC50: > 200 µM

SMILES: CN(C)c1ccc(/C=C(\NC(=O)c2ccccc2)C(=O)Nc2ccccc2C(=O)NN2C(=O)CSC2c2ccc(N(C)C)cc2)cc1 (stereo not drawn)
- EC50: > 50.1 µM
- IC50: > 50.1 µM

SMILES: NC(=S)N=Nc1c(O)cc(Nc2ccc(Cl)cc2Cl)c2ccccc12
- EC50: > 138 µM
- IC50: 97.7 µM

SMILES: CC(=O)OCC1OC(SC2=N/C(=C\c3ccc(Br)s3)C(=O)N2c2ccccc2)C(OC(C)=O)C(OC(C)=O)C1OC(C)=O (stereo not drawn)
- EC50: > 200 µM
- IC50: 123 µM and 33.9 µM

SMILES: COc1cc(Br)cc2nc(-c3cccs3)oc12
- EC50: > 200 µM
- IC50: 141 µM

SMILES: CN(C)/N=C(/c1nc2ccc([N+](=O)[O-])cc2[nH]c1=O)C(O)c1ccco1 (stereo not drawn)
- EC50: > 263 µM
- IC50: 191 µM

SMILES: COc1cc(/C=C/c2nc(NC(=S)Nc3ccccc3)nnc2C)cc(OC)c1OC
- EC50: > 200 µM
- IC50: 13.8 µM

SMILES: CCOC(=O)C(CSSCC(NC(C)=O)C(=O)OCC)NC(C)=O (stereo not drawn)
- EC50: 81.3 µM
- IC50: 141 µM

SMILES: O=[N+]([O-])c1ncc(N(CCO)CCO)s1
- EC50: > 200 µM
- IC50: 85.1 µM

SMILES: CS(=O)(=O)N1CC(CCl)c2ccc(SSc3ccc4c(c3)N(S(C)(=O)=O)CC4CCl)cc21 (stereo not drawn)
- outcome: inactive

SMILES: Cn1cnc2c(C#N)c(C#N)nn2c1=O
- EC50: > 200 µM
- IC50: > 200 µM

SMILES: O=C(/C=C/c1ccc(O)c(O)c1)NCCOC(=O)/C=C/c1ccc(O)c(O)c1
- EC50: > 200 µM
- IC50: 8.51 µM

SMILES: CCC(NC1=NCCO1)c1cccs1 (stereo not drawn)
- EC50: > 200 µM
- IC50: 79.4 µM

SMILES: COc1cc(OC)c2c(O)c3c(cc2c1)CC(C)(C)CC3=O
- EC50: > 2 µM
- IC50: 1.38 µM

SMILES: Cc1c2ccc(Cl)cc2nc2ccc(OCCNC(=O)[C@H](CCCN=C(N)N)NC(=O)OC(C)(C)C)cc12
- EC50: > 200 µM
- IC50: 89.1 µM

SMILES: COc1cc(OC)cc(-n2c(N)c(-c3nc4ccccc4s3)c3ccc([N+](=O)[O-])cc3c2=O)c1
- EC50: > 200 µM
- IC50: 148 µM

SMILES: N#Cc1c2c(cn3c1nc1ccccc13)Cc1ccccc1-2
- EC50: > 200 µM
- IC50: > 200 µM

SMILES: Cc1cn(C2CC(COCc3ccccc3)N(CCO[Si](C)(C)C(C)(C)C)O2)c(=O)[nH]c1=O (stereo not drawn)
- EC50: > 200 µM
- IC50: 11.5 µM

SMILES: CCOC(=O)c1cnc2c(ccc3[nH]cccc32)c1=O
- EC50: > 26.9 µM
- IC50: > 26.9 µM

SMILES: CC(C)N(C(=O)C1(C)CC1)C(C)C
- EC50: > 1350 µM
- IC50: > 1350 µM

SMILES: O=C1c2ccccc2-n2nnnc2C2CSCN12 (stereo not drawn)
- EC50: > 200 µM
- IC50: > 200 µM

SMILES: CC(=O)Nc1ccc(S(=O)(=O)n2oc(=O)c(-c3ccccc3)c2N)cc1
- EC50: > 200 µM
- IC50: 105 µM

SMILES: O=c1c(-c2c(O)cc(O)c3c2O[C@H](c2ccc(O)cc2)[C@@H](O)C3)c(-c2ccc(O)cc2)oc2cc(O)cc(O)c12
- EC50: > 200 µM and 31.6 µM
- IC50: 75.9 µM and > 100 µM

SMILES: OC1COC(c2ccccc2)OC1C1OC(c2ccccc2)OC2COC(c3ccccc3)OC21 (stereo not drawn)
- EC50: > 100 µM
- IC50: > 100 µM

SMILES: CCCNCCOc1nc(Cl)c(Cl)cc1Cl
- EC50: > 200 µM
- IC50: 126 µM
